{"source": "patent US10695406B2", "about": "“Modulation of cellular stress using a B-cell oxidative and/or endoplasmic reticulum stress inhibitor and a targeting agent” (THE UNIVERSITY OF QUEENSLAND, priority 2014, dated 2020)", "key": {"[1]": {"system": "mice with high fat diet-induced obesity (HFDIO)", "assay": "HFDIO Experiment 1: high fat diet induced obesity, treated last 3 weeks of 16", "type": "in vivo, C57BL/6 male mice", "from_the_text": "All mice were housed in sterilized, filter-topped cages in a conventional clean facility. Six to eight week old C57BL/6 male mice were fed ad libitum on a high fat diet containing 46% of available energy as saturated fat, 34% carbohydrate, 20% protein (Speciality feeds, SF04-027). Or on normal chow containing less than 10% saturated fat (GOLDMIX, 126575). Cages of mice were randomly allocated to the experimental groups by random draw. Investigators were not blinded to treatment by there were no subjective assessments made.\nTotal insulin and proinsulin were measured in supernatant from islet cultures or in serum from mice using commercially obtained ELISA kits from MILLIPORE and MERCODIA, respectively. The molar insulin concentration was determined by subtracting the molar proinsulin concentration from molar total insulin, and then the serum proinsulin:insulin ratio was calculated.\nFrom […] of the diet, mice were treated with 20 ng/g i.p. recombinant murine IL-22 twice weekly (R&D SYSTEMS), 3 μg/g anti-IL-23 weekly (ELI-LILLY), 0.1 mg/mouse anti-IL-24 weekly (PROTEIN TECH), or 0.5 mg/mouse irrelevant isotype control antibody, sacrificed and sampled.\nFasted i.p. glucose tolerance tests (2 g/kg glucose) and insulin tolerance tests (0.25 U/kg insulin; Humalog, Lilly) were performed at the times indicated in the Figure Legends.\nPancreatic tissue was fixed in 10% neutral buffered formalin and processed using standard histological techniques. Standard immunohistochemical and immunofluorescent staining methods were used to determine the presence of Grp78, insulin, glucagon, IL-22R1, proinsulin and ATF6-GFP.\nThe area in pixels/mm^2 was determined for Grp78 and insulin (immunofluorescence) and proinsulin (immunohistochemisty) in the core of β-cell rich area of 3-4 islets per mouse (n=6-10 mice) using IMAGEJ software version 1.45s. Live cell imagine in MIN6N8 cells was carries out at 37° C. in 5% CO2 in a chamber using an OLYMPUS XCELLENCE RT microscope."}, "[2]": {"system": "Human LS174T cells", "assay": "Oxidative stress (nitrite, Griess assay) in LS174T cells with 0.5 mM palmitate", "type": "cell-based", "settings": "human LS174T cells, 0.5 mM palmitate", "description": "(§1) Cell culture: Murine MIN6N8 cells were tested negative for mycoplasma. Cells were routinely cultured in phenol-red free DMEM (Life Technologies) containing 25 mM glucose (3.4 g/L sodium bicarbonate, 50 U/mL penicillin and streptomycin, 71.5 μM β-mercaptoethanol and 10% heat inactivated fetal bovine serum) and transferred to DMEM as above with 5.5 mM glucose 48 h prior to experimentation. Human LS174T cells were cultured in DMEM containing 10% heat-inactivated fetal bovine serum, 50 U mL^−1 penicillin and streptomycin.\nThe Griess Reagent Kit for Nitrite Determination was performed according to the manufacturer's instructions (Molecular Probes) to assess the intracellular levels of nitrite (the stable metabolite of nitric oxide) using lysates of β-cells prepared in RIPA buffer (150 mM NaCl, 1% NP40, 0.5% sodium deoxycholate, 0.1% SDS, 50 mM Tris, pH 7.5)."}, "[3]": {"system": "Murine MIN6N8 cells", "assay": "ERAI-sXBP1 reporter ER stress in MIN6N8 cells with 0.5 mM palmitate", "type": "cell-based", "settings": "15.4 nM, 24 hours, no palmitate", "description": "as §1\nER Stress Measurement: MIN6N8 cells were transfected with the ERAI reporter plasmid (F-XBP1ΔDBD-venus, using Lipofectamine 2000 according to the manufacturer's instructions. For ERAI there was negligible fluorescence in the absence of ER stressors, but upon induction of ER stress, splicing of XBP1 mRNA by IRE1a results in the translation of Venus but not an active form of XBP1. Fluorescence was measured (excitation: 485 nm; emission: 520 nm) using a POLARstar Omega plate reader and cells were treated 48 h after transfection. […] After 24 h, ERAI-sXBP1 GFP reporter fluorescence was measured."}, "[4]": {"settings": "HFDIO Experiment 1, 16 weeks on HFD"}, "[5]": {"settings": "HFDIO Experiment 1, 16 weeks on NCD"}}}
{"substance": "IL-22: interleukin-22; recombinant murine IL-22 (R&D SYSTEMS) in the mouse experiments", "values": [{"measurement": "body weight during treatment", "setting": "[1]; HFD", "value": "progressively lost weight during treatment without changing food consumption"}, {"measurement": "hepatic Hspa5 mRNA", "setting": "[1]; HFD, after 3 weeks treatment", "value": "decreased substantially"}, {"measurement": "fasted serum proinsulin:insulin ratio", "setting": "[1]; HFD, end of treatment", "value": "decreased the fasted serum proinsulin:insulin ratio"}, {"measurement": "reduction of serum proinsulin", "setting": "[1]; HFD, fasted, end of treatment", "value": 92, "unit": "%"}, {"measurement": "decrease of islet proinsulin", "setting": "[1]; HFD, immunostaining", "value": 64, "unit": "%"}, {"measurement": "reduction of Grp78 in the β-cell region of islets", "setting": "[1]; HFD, immunostaining", "value": 75, "unit": "%"}, {"measurement": "β-cell insulin stores", "setting": "[1]; HFD, immunostaining", "value": "returned to levels in non-obese mice"}, {"measurement": "reduction of the increase in IPGTT area under the curve (AUC glucose)", "setting": "[1]; HFD, two weeks of treatment", "value": 82, "unit": "%"}, {"measurement": "Body weight (% original)", "setting": "[1]; [4]", "value": "129 ± 9", "unit": "% original"}, {"measurement": "Fasting blood glucose", "setting": "[1]; [4]", "value": "8.8 ± 0.9", "unit": "mmol/L"}, {"measurement": "Fasting serum insulin concentration", "setting": "[1]; [4]", "value": "1.1 ± 0.5", "unit": "ng/mL"}, {"measurement": "Fasting serum proinsulin concentration", "setting": "[1]; [4]", "value": "9.5 ± 3.8", "unit": "pmol/L"}, {"measurement": "Body weight (% original)", "setting": "[1]; [5]", "value": "118 ± 3", "unit": "% original"}, {"measurement": "Fasting blood glucose", "setting": "[1]; [5]", "value": "8.9 ± 0.8", "unit": "mmol/L"}, {"measurement": "Fasting serum insulin concentration", "setting": "[1]; [5]", "value": "0.5 ± 0.1", "unit": "ng/mL"}, {"measurement": "Fasting serum proinsulin concentration", "setting": "[1]; [5]", "value": "Not detectable"}, {"measurement": "fold higher concentrations required for the same effect as human recombinant IL-22 in suppressing oxidative stress (nitrite)", "setting": "[2]", "value": "~64", "unit": "fold"}, {"measurement": "ER stress caused by the protein alone", "setting": "[3]", "value": "did not cause ER stress"}]}
